Assay results taken from patent US10292597B2, “Assessing endothelial function and providing calibrated UFMD data using a blood pressure cuff” (The Regents of the University of California, priority 2015, dated 2019).
Entries after “also recorded” stand apart in the source; their conditions may differ.

What was measured:
NO synthase = test: Single pulse waveforms from the pressure cuff after endothelial stimulation, with NO synthase inhibitor; format: in vivo, human; conditions: cuff inflated to 70 mm Hg; FIG. 3
Description: Both the amplitude and slope of the rising edge of the pulse increase markedly after endothelial stimulation.
In an artery with intact endothelial function, both pulse height (maximal cross-sectional arterial area) and compliance (maximum slope of the rising edge) increase markedly over baseline. […] FIG. 4 illustrates how a five minute cuff occlusion and the ensuring reactive hyperemia lead to major increases in area change per pulse and the maximum derivative of the area per pulse. Both metrics return to baseline levels after 20 minutes. FIG. 5 confirms the repeatability of the protocol by illustrating the effects of a series of two cuff occlusion periods. We see from FIG. 6 that only a small slow drift in the measured quantities occurs when no reactive hyperemic stimulus is applied.
A stimulus is then applied to the subject. Any of a number of stimuli expected to alter endothelial function are contemplated. Such stimuli include, for example, occlusion of blood flow, and/or application of one or more drugs to the subject. Illustrative drugs include, for example, drugs that act as NO agonists (e.g. acetylcholine), β2-adrenergic agonists such as albuterol, acoustic/mechanical tissue vibration, transcutaneous low frequency ultrasound (see, e.g., Iida et al. (2006) J. Amer. Coll. Cardiol., 48(3): 532-537), and the like. […]

arterial smooth muscle = conditions: cited from earlier work
brachial artery = test: Cuff-based measurement of pulse amplitude (proportional to arterial area) before and after a stimulus; format: in vivo, human
Description: Three individuals in the age-range of 28-38 were examined. All subjects had Framingham risk scores of 1% or less, and had no history of cardiovascular disease. Each individual was assessed at least three times before and after RH induced by five minutes of suprasystolic cuff occlusion. At least one additional measurement was made using the same protocol, except without cuff inflation. Sensitivity to a 0.4 mg dose of sublingual NG was assessed three times in two individuals.
Sensitivity to a 0.4 mg dose of sublingual NG was assessed three times in two individuals. In the analysis that follows, all of the datasets are pooled by stimulus. This addresses the question: Can the method measure changes in arterial tone due to vasorelaxatory stimuli and with what sensitivity?
A single quantity relating to the recorded pressure data, the pulse amplitude, was studied and it was posited that this is proportional to the arterial area. During the post stimulus interval, pressure data from the cuff were recorded approximately every 80 seconds, for a period of 30 seconds. During each recording interval, the cuff was inflated to 70 mm Hg, which was always below the measured diastolic pressure of the subject. To quantify the observed response, the mean of the pulse quantity (in this case, amplitude) during the response interval was divided by the mean value of the same quantity during the baseline interval. FIG. 10 illustrates the results.
In Table 2, the maximum response for each stimulus is calculated and the statistical significance of the change relative to the NS case (one-tail Student's t test) is evaluated. Values of p<0:05 were considered significant.
(iii) The cuff is inflated to a value Pm, which must be less than the mean arterial pressure, for a period Tm=30 s. During this time interval, we measure and record the pressure fluctuations in the cuff.
v) The stimulus is applied. This is either 1-5 min of cuff occlusion to suprasystolic pressure Ps (for studies of endothelial function) or a dose of sublingual NG (for studies of endothelium-independent vasodilation).
(vi) After Tp=45 s have elapsed following cuff release or drug administration, a series of up to Nr=10 repeat measurement intervals ensue. In each interval, the cuff is inflated to Pm for Tm seconds, after which it is deflated for Tw seconds. This large number of repeat measurements (Nr) is required only when one wishes to record the return of the vessel toward baseline.
(viii) Each post-stimulus response is then compared to the average baseline response, to yield the area-based cFMD metric (Equation 2) defined above. […]
(iv) The maximum of the cFMD metric in Equation 2, analogous to that used for uFMD, expressed directly as a function of the measurement data, is calculated as […]

| SMILES | effect on increase of pulse amplitude and rising-edge slope after endothelial stimulation (NO synthase) | smooth muscle dilation elicited (arterial smooth muscle; 400 μg sublingual dose, Feldman et al. (1979), Adams et al. (1998)) | typical dilation due to nitroglycerin (arterial smooth muscle; observed at Ptm=PS) | change in metric, NG vs. NS (brachial artery; 400 μg sublingual vs zero dose (no stimulus)) [%] | cDmax % (brachial artery; 400 μg sublingual, Table 5) [%] | Mean ± SEM of maximum response over all data sets (dilation response) (brachial artery; 400 μg sublingual, pooled data sets, Table 5) | Mean ± SEM of maximum Response over all data sets (amplitude response, response/baseline) (brachial artery; 0.4 mg sublingual, cuff inflated to 70 mm Hg, pooled data sets, Table 2) |
| --- | --- | --- | --- | --- | --- | --- | --- |
| COC(=O)[C@@H](N)CCCNC(=N)N[N+](=O)[O-] [L-NAME] | greatly attenuates this response; also recorded: greatly attenuated | – | – | – | – | – | – |
| O=[N+]([O-])OCC(CO[N+](=O)[O-])O[N+](=O)[O-] [NG, Nitroglycerin] | – | maximal smooth muscle dilation | ≈ 20% | 70 | 70 | 1.70 ± 0.036 | 1.70 ± 0.036 |
